Assay results taken from PubChem BioAssay (NCI).
Several values for one entry are separate records, joined by “and”; a condition that tells them apart may be missing. Equal values may be shown once.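 Compound exposure: 48 hours, 5 concentrations, 96-well plates. GI50 marks 50% less growth. TGI is the concentration that stops growth completely.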

Assays:
Assay in all cases: NCI tumour cell line growth inhibition, 48 h
[1] = system: RXF 393 renal
[2] = system: RPMI-8226 leukemia
[3] = system: HCT-15 colon
[4] = system: NCI-H226 lung
[5] = system: SF-268 CNS
[6] = system: ACHN renal
[7] = system: K-562 leukemia
[8] = system: NCI-H522 lung
[9] = system: HCT-116 colon
[10] = system: OVCAR-4 ovarian

SMILES	GI50 [1]	TGI [1]	GI50 [2]	TGI [2]	GI50 [3]	TGI [3]	GI50 [4]	TGI [4]	GI50 [5]	TGI [5]	GI50 [6]	TGI [6]	GI50 [7]	TGI [7]	GI50 [8]	TGI [8]	GI50 [9]	TGI [9]	GI50 [10]	TGI [10]
CC1OC2CC(=O)OC2C2=C1C(=O)c1c(O)c3c(c(O)c1C2=O)C1CC(O)C3(O)C(C)O1 (stereo unspecified)	1.2 µM	2.51 µM	0.267 µM	0.876 µM	0.367 µM	3.69 µM	0.974 µM	3.18 µM	0.303 µM	1.15 µM	0.555 µM	10.4 µM	0.336 µM	11.5 µM	0.195 µM	0.447 µM	0.0452 µM	0.252 µM	0.381 µM	1.23 µM
CN=S(=O)(c1ccccc1)c1ccccc1	–	> 100 µM	–	> 100 µM	–	> 100 µM	–	> 100 µM	–	> 100 µM	–	> 100 µM	–	> 100 µM	–	> 100 µM	–	> 100 µM	–	> 100 µM
CC1C(=O)C(C)C(c2ccccc2)N(N=O)C1c1ccccc1 (stereo unspecified)	49.6 µM	> 68.4 µM and 171 µM	–	> 1000 µM	> 1000 µM	> 1000 µM	260 µM	572 µM	44 µM	352 µM	–	341 µM	–	> 1000 µM	> 385 µM	> 601 µM	–	354 µM	> 378 µM	> 661 µM
Cc1ccc(NC(=O)/C(=N\Nc2ccc([N+](=O)[O-])cc2[N+](=O)[O-])C2C(=O)NC(=O)NC2=O)cc1	–	> 100 µM	–	> 100 µM	–	> 100 µM	–	> 100 µM	–	> 100 µM	–	> 100 µM	–	> 100 µM	–	> 100 µM	–	> 100 µM	–	> 100 µM
CC(=O)Nc1ccc2c(c1)oc(=O)c1cc(NC(C)=O)ccc12	> 100 µM	> 100 µM	52.8 µM	> 100 µM	> 100 µM	> 100 µM	> 100 µM	> 100 µM	50.5 µM	> 100 µM	> 100 µM	> 100 µM	> 100 µM	> 100 µM	55.7 µM	> 100 µM	80.8 µM	> 100 µM	> 100 µM	> 100 µM
Fc1cccc(COc2ccc(Nc3ncnc4cc(-c5ccc[nH]5)sc34)cc2Cl)c1	2.17 µM	6.62 µM	0.133 µM	> 15.9 µM	0.264 µM	> 13 µM	1.7 µM	> 16.8 µM	1.46 µM	> 14.7 µM	2.68 µM	> 16.8 µM	10.7 µM	> 25 µM	1.48 µM	> 7.14 µM	7.46 µM	> 25 µM	0.0847 µM	3.84 µM
O=C1C(Cl)=C(Nc2cccc(O)c2)C(=O)N1c1cc(Cl)c(Cl)cc1Cl	14.9 µM	30.6 µM	14.4 µM	45.8 µM	15.1 µM	30.1 µM	14.7 µM	40.9 µM	19.5 µM	42.5 µM	14.4 µM	27.5 µM	17.4 µM	40.3 µM	14.3 µM	28 µM	15.8 µM	30.2 µM	22.7 µM	51.8 µM
CCCCCCCCCCCCCCCC(=O)OCC1OC(n2c(O)c(N=NC(N)=S)c3ccc([N+](=O)[O-])cc32)C(OC(C)=O)C1OC(C)=O (stereo unspecified)	–	> 100 µM	–	> 100 µM	–	> 100 µM	–	> 100 µM	–	> 100 µM	–	> 100 µM	–	> 100 µM	–	> 100 µM	–	> 100 µM	–	> 100 µM
N#C/C(=C\c1cccc(O)c1)C(N)=O	–	> 100 µM	–	> 100 µM	–	> 100 µM	–	> 100 µM	–	> 100 µM	–	> 100 µM	–	> 100 µM	–	> 100 µM	–	> 100 µM	–	> 100 µM
CC(C)CC1=[N+]=C(NC#N)N=C(CCC(=O)Nc2ccccc2[N+](=O)[O-])C1	–	> 100 µM	–	> 100 µM	–	> 100 µM	–	> 100 µM	–	> 100 µM	–	> 100 µM	–	> 100 µM	–	> 100 µM	–	> 100 µM	–	> 100 µM
Cn1ccnc1C(=O)/C=C/c1ccc(CC(=O)Nc2ccccc2)cc1	3.86 µM	7.99 µM	1.45 µM	9.7 µM	1.25 µM	8.77 µM	8.59 µM	> 25 µM	3.72 µM	13.9 µM	5.24 µM	15.6 µM	1.07 µM	> 25 µM	3.2 µM	6.45 µM	1.68 µM	5.13 µM	4.12 µM	> 25 µM
OCc1ccc(-c2nn(Cc3ccccc3)c3ccccc23)o1	7.94 µM and 14.8 µM	30.7 µM and 38 µM	14.3 µM and 3.15 µM	43.8 µM and 15.3 µM	17.4 µM and 20.1 µM	49.2 µM and 41.4 µM	0.156 µM and 0.114 µM	0.346 µM and 0.371 µM	18.6 µM and 19 µM	65.8 µM and 51.1 µM	19.8 µM and 16 µM	91.9 µM and 39.8 µM	10.1 µM and 7.41 µM	63.2 µM and > 42.3 µM	12 µM and 20.6 µM	28.2 µM and > 58.7 µM	1.65 µM and 8.72 µM	20 µM and 22.7 µM	10.2 µM and 28.1 µM	> 100 µM
C=C1C(=O)O[C@H]2[C@H]1CC/C(COC(=O)N1CCC[C@H]1C(=O)Nc1ccc(OC)c(C(N)=O)c1O)=C\CC[C@@]1(C)O[C@@H]21	1.2 µM	2.79 µM	1.93 µM	4.87 µM	4.34 µM	17.2 µM	2.24 µM	7.12 µM	5.63 µM	24.7 µM	2.9 µM	10.9 µM	2.43 µM	10.2 µM	1.68 µM	4.07 µM	1.33 µM	3.06 µM	2.88 µM	12.9 µM
CCOC(=O)NN1C(=O)C(=P(c2ccccc2)(c2ccccc2)c2ccccc2)C(C(=O)OCC)=C1C	–	> 100 µM	–	> 100 µM	–	> 100 µM	–	> 100 µM	–	> 100 µM	–	> 100 µM	–	> 100 µM	–	> 100 µM	–	> 100 µM	–	> 100 µM
CC12CCC(=O)C=C1CCC1C2C(O)CC2(C)C(c3csc(N)n3)CCC12 (stereo unspecified)	–	> 100 µM	–	> 100 µM	–	> 100 µM	–	> 100 µM	–	> 100 µM	–	> 100 µM	–	> 100 µM	–	> 100 µM	–	> 100 µM	–	> 100 µM
CCN(Cc1ccccc1OC)c1ccc(CO)c(Cl)c1	7.61 µM	24.7 µM	2.67 µM	21.5 µM	7.11 µM	23.6 µM	0.0487 µM	0.179 µM	15.1 µM	30.7 µM	14.1 µM	27.4 µM	2.16 µM	12.1 µM	12 µM	26.1 µM	0.215 µM	8.77 µM	0.518 µM	10.3 µM
O=C1/C(=C/c2ccc(O)cc2)COc2ccc(-c3ccccc3)cc21	3.35 µM	8.25 µM	1.4 µM	7.68 µM	2.89 µM	12.4 µM	16.1 µM	39.2 µM	5.49 µM	22.8 µM	12.3 µM	25.1 µM	2.57 µM	> 39.3 µM	2.93 µM	16.4 µM	3.38 µM	14.4 µM	14.1 µM	31 µM
O=C(CCl)N1c2ccccc2Sc2c1ccc1ccccc21	1.85 µM	3.43 µM	3.08 µM	13.1 µM	1.92 µM	4.83 µM	2.21 µM	5.26 µM	1.88 µM	3.47 µM	1.83 µM	3.69 µM	2.98 µM	13 µM	1.76 µM	3.46 µM	1.45 µM	2.78 µM	2.56 µM	6.18 µM
C[C@H]1[C@H](C)CC[C@]2(C(=O)O)CC[C@]3(C)C(=CC[C@@H]4[C@@]5(C)C/C(=C/c6cccnc6)[C@H](O)C(C)(C)[C@@H]5CC[C@]43C)[C@H]12	13.7 µM	36.6 µM	6.03 µM	41.5 µM	10.7 µM	52 µM	15.3 µM	56.8 µM	24.3 µM	> 100 µM	10.2 µM	> 100 µM	6.79 µM	> 100 µM	13 µM	94.3 µM	10.7 µM	26.8 µM	43 µM	> 100 µM
O=C(CN1CCN(c2ccccc2)CC1)N1CCc2c([nH]c3ccccc23)C1c1cccnc1 (stereo unspecified)	–	49.5 µM	–	> 100 µM	–	> 100 µM	–	> 100 µM	–	> 100 µM	–	> 100 µM	–	> 100 µM	–	> 85.7 µM	–	21.3 µM	–	> 66.8 µM
COc1ccc(NC(=O)c2cc(OC)c(OC)c(OC)c2)cc1	–	94.3 µM	–	> 100 µM	–	> 100 µM	–	> 100 µM	–	> 94.8 µM	–	> 100 µM	–	> 100 µM	–	> 87.4 µM	–	> 100 µM	–	> 100 µM
C[C@@H]1COCCN1c1cc(C2(S(C)(=N)=O)CC2)nc(-c2ccnc3[nH]ccc23)n1 (stereo partly specified)	1.46 µM	6.76 µM	5.73 µM	36.1 µM	3.98 µM	> 100 µM	3.94 µM	76.8 µM	6.17 µM	39.6 µM	0.592 µM	4.3 µM	3.22 µM	> 100 µM	6.92 µM	43.1 µM	4.05 µM	> 100 µM	1.86 µM	23.7 µM
CN(C)CCOc1ccc2c(c1)C/C(=C/c1ncc([N+](=O)[O-])n1C)C2=O	–	3.69 µM	–	4.46 µM	–	3.92 µM	–	4.52 µM	–	9.1 µM	–	4.71 µM	–	> 20 µM	–	3.02 µM	–	> 19.6 µM	–	5.84 µM
CC[C@H](CC#N)OC(=O)N[C@@H](C)c1cccc(NC(=O)Nc2ccc(-c3cnco3)c(OC)c2)c1	0.266 µM	> 22.9 µM	0.152 µM	19.4 µM	0.119 µM	> 51.4 µM	2 µM	38.4 µM	0.074 µM	51.3 µM	0.0872 µM	45.1 µM	0.0263 µM	> 52.6 µM	0.0731 µM	15.1 µM	0.026 µM	> 45.8 µM	14.1 µM	71.7 µM
Cc1cccc(C(C)C)c1NC(=O)C(=O)CC(=O)c1c(C)n([O-])c2ccccc2[n+]1=O	–	> 100 µM	–	72.1 µM	–	62.2 µM	–	> 100 µM	–	> 100 µM	–	> 100 µM	–	> 100 µM	–	53.9 µM	–	> 100 µM	–	95 µM
CN(C)C(=S)N=Nc1c(O)[nH]c2ccccc12	1.05 µM	14.5 µM	0.418 µM	33.5 µM	0.455 µM	23.4 µM	0.642 µM	6.43 µM	0.593 µM	12.6 µM	0.526 µM	11.4 µM	0.475 µM	> 57.8 µM	0.355 µM	11 µM	0.303 µM	3 µM	0.394 µM	5.59 µM
CC(=O)OC1c2ccccc2CCCCCCC12OCCO2 (stereo unspecified)	–	> 100 µM	–	> 100 µM	–	> 100 µM	–	> 100 µM	–	> 100 µM	–	> 100 µM	–	> 100 µM	–	> 100 µM	–	> 100 µM	–	> 100 µM
Nc1cc(N)c(N)cc1N	1.73 µM	3.19 µM	3.48 µM	17.5 µM	2.01 µM	4.68 µM	1.93 µM	3.96 µM	3.06 µM	12.2 µM	1.73 µM	3.72 µM	2.92 µM	> 100 µM	1.48 µM	2.9 µM	2.01 µM	4.61 µM	1.79 µM	3.35 µM
NNC(=O)CCC(=O)NC1C2CC3CC(C2)CC1C3 (stereo unspecified)	–	> 100 µM	–	> 100 µM	–	> 100 µM	–	> 100 µM	–	> 100 µM	–	> 100 µM	–	> 100 µM	–	> 100 µM	–	> 100 µM	–	> 100 µM
COc1ccc(C2S/C(=C\c3ccc(O)cc3)C(=O)N2NC(=O)Cc2ccccc2)cc1 (stereo unspecified)	–	> 100 µM	–	> 100 µM	–	> 100 µM	–	> 100 µM	–	> 100 µM	–	> 100 µM	–	> 100 µM	–	> 100 µM	–	> 100 µM	–	> 100 µM
